According to PMC8455565 (Scientific Reports, 2021):

Experiments:
B cells [1] = assay: Antigen-presentation assay (OVA-preactivated B cells with DO11.10 T cells); assay type: cell-based, mouse
Procedure: DO11.10 and BALB/C mice were purchased from The Jackson Laboratory and housed in accordance with the policies of the IACUC of Eli Lilly and Company. BALB/C mice were primed with 10 µg/ml ovalbumin (OVA) in Alhydrogel (InvivoGen, CA, USA) at a 2:1 ratio and boosted with 10 µg/ml OVA in PBS 2 weeks after priming. BALB/C mice were sacrificed 4 days after boosting, and B cells were purified from splenocytes using CD19 microbeads (Miltenyi Biotec) for positive selection. B cells were preincubated with HM71305/LSN3359180 for 1 h before the addition of OVA protein or OVA323-339 peptide, and T cells were positively isolated from DO11.10 transgenic mice using CD4 microbeads (Miltenyi Biotec). The supernatants were collected after 18 h, and IL-2 was measured by ELISA using mouse IL-2 DuoSet (DY402, R&D Systems). FACS analysis of CD69 (H1.2F3, Biolegend), CD86 (B7-2, BD Biosciences) and H2-IA/IE (M5/114.15.3, BD Biosciences) was performed using BD LSR Fortessa, and data were analyzed by FlowJo10 (FlowJo, LLC).

JAK3 = biological target: T1, JAK3 (Homo sapiens, UniProt P52333); assay: Kinase selectivity biochemical assay, JAK3; details: biochemical assay
T1 sequence (P52333 1-1124): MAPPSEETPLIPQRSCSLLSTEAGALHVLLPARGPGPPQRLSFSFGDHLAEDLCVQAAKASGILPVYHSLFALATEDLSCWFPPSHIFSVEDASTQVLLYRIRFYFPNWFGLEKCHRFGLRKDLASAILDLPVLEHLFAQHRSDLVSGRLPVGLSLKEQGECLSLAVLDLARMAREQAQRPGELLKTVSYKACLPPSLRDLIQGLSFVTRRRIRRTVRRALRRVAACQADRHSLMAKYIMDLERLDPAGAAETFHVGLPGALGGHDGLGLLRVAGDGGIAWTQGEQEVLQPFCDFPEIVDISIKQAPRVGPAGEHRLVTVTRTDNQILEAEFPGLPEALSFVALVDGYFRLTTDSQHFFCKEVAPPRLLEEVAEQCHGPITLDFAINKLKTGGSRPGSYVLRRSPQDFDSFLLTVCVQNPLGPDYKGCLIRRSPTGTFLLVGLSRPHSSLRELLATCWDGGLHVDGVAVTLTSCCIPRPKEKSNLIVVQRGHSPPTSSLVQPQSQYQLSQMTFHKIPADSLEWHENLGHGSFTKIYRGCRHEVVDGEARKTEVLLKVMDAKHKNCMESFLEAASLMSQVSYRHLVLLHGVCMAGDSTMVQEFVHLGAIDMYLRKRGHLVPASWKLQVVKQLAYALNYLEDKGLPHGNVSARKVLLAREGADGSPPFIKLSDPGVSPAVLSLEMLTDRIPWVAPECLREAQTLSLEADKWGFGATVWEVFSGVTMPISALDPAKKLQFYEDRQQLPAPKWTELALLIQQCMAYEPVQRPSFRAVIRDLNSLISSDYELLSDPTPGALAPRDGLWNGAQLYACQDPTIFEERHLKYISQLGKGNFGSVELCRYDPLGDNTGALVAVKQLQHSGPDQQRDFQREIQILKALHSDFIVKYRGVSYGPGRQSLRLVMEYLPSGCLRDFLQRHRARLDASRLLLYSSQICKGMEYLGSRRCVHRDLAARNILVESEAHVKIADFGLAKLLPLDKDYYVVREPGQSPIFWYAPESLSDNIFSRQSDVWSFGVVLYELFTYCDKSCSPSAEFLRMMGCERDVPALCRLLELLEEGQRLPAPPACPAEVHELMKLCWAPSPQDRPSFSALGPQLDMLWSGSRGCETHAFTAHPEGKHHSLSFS

BTK [2] = biological target: T2, BTK (Homo sapiens, UniProt Q06187); assay: hBTK Lanthascreen biochemical activity
BTK [3] = biological target: T2, BTK; assay: Kinase selectivity biochemical assay (FRET), BTK; details: Supplementary Table 1, biochemical assay
CTLL-2 = assay: IL-2 induced T cell proliferation in CTLL-2; assay type: cell-based; details: Mus musculus, cellular level
BTK [4] = biological target: T2, BTK; assay: BTK occupancy in B cell line (Ramos cells, biotinylated probe, AlphaScreen); assay type: cell-based
Procedure: A total of 5 × 10^5 Ramos cells/well were plated in 96-well PDL-coated plates in DMEM with high glucose (GIBCO) supplemented with 10% FBS. Serial dilutions of LY3439943 in DMSO (final DMSO concentration, 0.4%) were incubated with the cells for 1 h at 37 °C. An equal volume of a covalent biotinylated BTK probe was added (final concentration, 167 nM), and the cells were incubated for another 1 h at 37 °C. The cells were lysed, and the amount of BTK was determined using the AlphaScreen IgG Detection Kit (Perkin Elmer 6760617R) and an anti-BTK antibody (Thermo Scientific Cat# MA5-14929) following the manufacturer’s instructions. The signal was measured at 615 nm with an Envision plate reader (Perkin Elmer).

A431 = assay: Cell growth inhibition in EGFR overexpressed A431; assay type: cell-based; details: Homo sapiens, A-431; cellular level; read-out: IC50, cell growth inhibition in EGFR overexppressed A431
B cells [5] = assay: B cell inhibition in whole blood; assay type: cell-based
BTK [6] = biological target: T2, BTK; assay: BTK occupancy in whole blood ex vivo; assay type: cell-based; set-up: from tissue; host or cells: whole blood

T2 sequence (Q06187 whole entry): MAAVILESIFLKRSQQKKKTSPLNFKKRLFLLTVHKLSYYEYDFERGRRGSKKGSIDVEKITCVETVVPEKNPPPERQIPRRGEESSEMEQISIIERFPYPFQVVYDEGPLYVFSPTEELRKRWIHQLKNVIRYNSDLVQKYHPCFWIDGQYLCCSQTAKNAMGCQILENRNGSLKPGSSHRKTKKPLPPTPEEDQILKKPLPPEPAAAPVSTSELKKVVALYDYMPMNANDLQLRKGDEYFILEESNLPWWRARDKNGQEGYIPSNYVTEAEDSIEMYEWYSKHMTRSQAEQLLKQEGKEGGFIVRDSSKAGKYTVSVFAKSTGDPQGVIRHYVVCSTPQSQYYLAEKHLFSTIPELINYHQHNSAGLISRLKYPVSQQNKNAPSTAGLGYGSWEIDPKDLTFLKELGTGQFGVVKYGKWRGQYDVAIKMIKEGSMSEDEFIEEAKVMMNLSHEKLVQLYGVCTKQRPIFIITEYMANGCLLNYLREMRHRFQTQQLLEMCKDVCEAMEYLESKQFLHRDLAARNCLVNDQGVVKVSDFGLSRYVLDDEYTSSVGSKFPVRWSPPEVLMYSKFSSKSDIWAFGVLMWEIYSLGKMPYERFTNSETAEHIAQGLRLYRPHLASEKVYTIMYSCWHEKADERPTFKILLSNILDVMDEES

IC50 (B cells [1]; Mus musculus, B-cell, in vivo preactivated B cells, roughly, read-out: IC50 effect on the B cells (CD80 and CD86 expression)): ~100 nM
IC50 (JAK3): 39 nM
IC50 (BTK [2]): 3 nM
IC50 (BTK [3]): 3 nM
IC50 (BTK [4]): 6 nM
IC50 (A431): > 500 nM
IC50 (B cells [5]): 440 nM
IC50 (BTK [6]): 170 nM
SMILES: C=CC(=O)Nc1cccc(Oc2nc(Nc3ccc(N4CCN(C(C)C)CC4)cc3)nc3ccoc23)c1 [HM71035]
B cell-dependent T cell activation (IL-2 secretion, CD69 expression on T cells) (B cells [1]; B cells preincubated 1 h with compound, coculture with DO11.10 T cells): reduced in a dose-dependent fashion
IC50 (CTLL-2): > 500 nM
